The record followed here is PubChem BioAssay AID1996.

Values after ≈ are worked out from the molar mass of the structure shown. Bounds are passed on as bounds.

Usually solubility (kinetic) stands for the concentration staying in solution when a stock, usually in DMSO, is diluted into the medium.

For this series the following is noted: buffer; pH 7.4; 200.0 µM.
The compound `CC1C(=O)N2CCCc3cc(NC(=O)C4CC4)cc1c32` (stereo not drawn) returned a kinetic solubility of 36.3 µg/mL (≈ 134 µM).

`Cc1ccc(C)c(NC(=S)N2CCCC2)c1` displayed a kinetic solubility of more than 35.2 µg/mL.

Regarding `O=C(Sc1ccc(Cl)cc1)c1ccccn1`, the kinetic solubility was 1.7 µg/mL (≈ 6.81 µM).

`Cc1cccc2cc3ccccc3nc12` displayed a solubility (kinetic) of less than 0.4 µg/mL.

For `CCN(C(=O)COC(=O)c1ccc([N+](=O)[O-])o1)c1cccc2ccccc12`, the solubility (kinetic) worked out at 33.7 µg/mL (≈ 91.5 µM).

Compound `O=C(Cc1ccc(Cl)cc1)Nc1ccc(Cl)cn1` yielded a solubility (kinetic) of 3.1 µg/mL (≈ 11 µM).

Regarding `CN1CCN(C(=O)/C(=C/c2ccccc2F)NC(=O)c2ccccc2)CC1`, the kinetic solubility was more than 55.1 µg/mL.

Take `O=c1c(-c2ccco2)[n+]([O-])c2ccccc2n1OCc1c(F)cccc1F`: the solubility (kinetic) is 3 µg/mL (≈ 8.1 µM).

On to `CC(C)(C)c1ccc(C(=O)NCCOc2ccccc2)cc1`, for which the solubility (kinetic) turned out to be 2.2 µg/mL (≈ 7.4 µM).

Consider `COc1ccccc1CNc1ncnc2sccc12`, for which the solubility (kinetic) worked out at 34.5 µg/mL (≈ 127 µM).

In turn, `Cc1c(Cl)cnc(NC(=O)COC(=O)C2CC2)c1Cl` returned a solubility (kinetic) of more than 45.5 µg/mL.

Compound `CN(C(=O)Nc1ccccc1)C1CCCCC1` came in with a solubility (kinetic) of 8.6 µg/mL (≈ 37 µM).

Regarding `O=C(NCC(O)c1ccc([N+](=O)[O-])cc1)Nc1ccccc1` (stereo not drawn), the solubility (kinetic) came out at 42 µg/mL (≈ 139 µM).

As to `O=S(=O)(Nc1ncccn1)c1ccccc1`, the solubility (kinetic) was more than 35.3 µg/mL.

In the case of `Cn1cc(C(=O)N2CCCCC2)c2ccccc21`, the kinetic solubility is more than 36.3 µg/mL.

The compound `CC1CN(C(=O)COC(=O)c2cc3ccccc3cc2O)CC(C)O1` (stereo not drawn) returned a solubility (kinetic) of 12.7 µg/mL (≈ 37 µM).

In the case of `Cc1ccc(C2N=C(N)Nc3nc4ccccc4n32)cc1` (stereo not drawn), the solubility (kinetic) was 35 µg/mL (≈ 126 µM).

On to `COc1ccccc1NC(=O)NC1CCCCCCC1`, for which the solubility (kinetic) was determined as 2.7 µg/mL (≈ 9.77 µM).

Regarding `COc1ccccc1C(C)NC(=O)CCOc1cccc(C)c1` (stereo not drawn), the solubility (kinetic) is 2.4 µg/mL (≈ 7.66 µM).

With `COc1ccc(C(=O)OCC(=O)NC(=O)NC2CCCC2)cc1[N+](=O)[O-]`, the kinetic solubility stood at 6.4 µg/mL (≈ 17.5 µM).

On to `S=C([S-])N1CCCC1.[NH4+]`, for which the solubility (kinetic) came out at 16.6 µg/mL.

The compound `Cc1ccc2c(c1)=C/C(=C\c1c(O)[nH]c(=O)[nH]c1=O)C(=O)N=2` yielded a solubility (kinetic) of less than 0.2 µg/mL.

Compound `O/N=C1\CCCc2ccc3ccccc3c21` yielded a solubility (kinetic) of 4.5 µg/mL (≈ 21.3 µM).

Turning to `COc1cccc(NC(=O)CNC(=O)c2ccc(C)o2)c1`, the kinetic solubility was more than 43.2 µg/mL.

`CCN(CC)C(=N)N1c2ccccc2CCC1C.Cl` (stereo not drawn) returned a solubility (kinetic) of 40.8 µg/mL.

The compound `Cn1cnc(S(=O)(=O)Nc2ccc(OC(F)(F)F)cc2)c1` gave a solubility (kinetic) of 39.7 µg/mL (≈ 124 µM).

`O=C(/C=C/c1ccccc1)N(Cc1cccs1)C1CCS(=O)(=O)C1` (stereo not drawn) gave a kinetic solubility of more than 54.2 µg/mL.

`CC(=O)Nc1ccc(NC(=O)CC2CCCC2)cc1` registered a kinetic solubility of more than 39.1 µg/mL.

With `O=C(/C=C/c1ccco1)Nc1ccc(CN2CCOCC2)cc1`, the solubility (kinetic) was more than 46.9 µg/mL.

With `O=C1C(Nc2ccccc2)=CC(c2ccc(O)cc2)N1c1ccccc1` (stereo not drawn), the kinetic solubility is 2 µg/mL (≈ 5.84 µM).

The compound `O=C(C1CC2C=CC1C2)N1CCN(c2ccccc2)CC1` (stereo not drawn) registered a kinetic solubility of more than 42.4 µg/mL.

In turn, `Cc1ccc2oc(C(=O)N3CCN(C)C[C@@H]3C(C)C)c(C)c2c1` registered a solubility (kinetic) of 34.3 µg/mL (≈ 109 µM).

`COc1ccc(NC(=O)c2ccc3ccccc3c2)cc1`: the solubility (kinetic) was less than 0.6 µg/mL.

In turn, `CC(=O)Nc1ccc(N2CCN(c3ccc(F)cc3)CC2)cc1` gave a solubility (kinetic) of 0.7 µg/mL (≈ 2.23 µM).

For `O=C(Nc1ccon1)Nc1cccc(Cl)c1Cl`, the solubility (kinetic) is 1.9 µg/mL (≈ 6.98 µM).

In turn, `O.O=C([O-])c1ccn2c(C(=O)c3ccccc3)c(-c3ccccc3)cc2c1` registered a kinetic solubility of more than 52.4 µg/mL.

The compound `Cc1ccc(C(=O)OCC(=O)NC(=O)c2cccn2C)cc1[N+](=O)[O-]` displayed a solubility (kinetic) of 1.3 µg/mL (≈ 3.76 µM).

Take `O=C(NCc1ccccc1Br)c1ccc2c(c1)OCCO2`: the kinetic solubility was 11.6 µg/mL (≈ 33.3 µM).

Compound `O=C(c1ccc(-c2ccc([N+](=O)[O-])cc2)o1)N1CCCCCCC1` displayed a solubility (kinetic) of 9.1 µg/mL (≈ 27.7 µM).

In turn, `Cc1ccc2nc(-c3ccc4c(c3)OCCO4)cn2c1` returned a kinetic solubility of 35.1 µg/mL (≈ 132 µM).

Compound `CSc1ncc(C(=O)Nc2ccc(C)cc2C)c(C)n1` showed a kinetic solubility of 12.1 µg/mL (≈ 42.1 µM).

`C=CCn1c(Oc2cccc(C)c2)nc2c1c(=O)n(C)c(=O)n2C` came in with a kinetic solubility of more than 49 µg/mL.

Turning to `COc1cc(C(=O)NCCOc2ccccc2)cc(OC)c1OC`, the kinetic solubility is more than 49.7 µg/mL.

As to `N#Cc1ccc(NC(=O)c2cccs2)nc1`, the solubility (kinetic) is more than 34.4 µg/mL.

Take `COCc1cc(C)nc(SCC(=O)Oc2ccc(Cl)cc2)c1C#N`: the kinetic solubility amounted to 9.4 µg/mL (≈ 25.9 µM).

For `CC(=O)c1ccc(N2CCN(Cc3nc4ccccc4[nH]3)CC2)cc1`, the kinetic solubility came out at 29.8 µg/mL (≈ 89.1 µM).

For `O=c1[nH]c(/C=C/c2ccc(Br)cc2)nc2ccccc12`, the solubility (kinetic) is 0.8 µg/mL (≈ 2.45 µM).

As to `O=C(COC(=O)c1ccco1)NCc1ccc2c(c1)OCO2`, the kinetic solubility is more than 45.5 µg/mL.

The compound `O=C(NC1CCCCC1)c1ccc(-c2ccc(Cl)cc2)o1` returned a solubility (kinetic) of less than 0.7 µg/mL.

As to `O=C(NC1=NCCS1)C1CCN(S(=O)(=O)c2cc([N+](=O)[O-])ccc2Cl)CC1`, the solubility (kinetic) was determined as 20.8 µg/mL (≈ 48 µM).

`COc1ccc(OC)c(NC(=O)Cn2cc(C=O)c3ccccc32)c1` showed a solubility (kinetic) of 2.5 µg/mL (≈ 7.39 µM).

On to `CCCN1CCC(NC(=O)C2CC=CCC2C(=O)O)CC1` (stereo not drawn), for which the kinetic solubility is more than 44.2 µg/mL.

The compound `CC(=O)Nc1cccc(C(=O)OCCCOc2ccc(F)cc2)c1` had a kinetic solubility of 2.6 µg/mL (≈ 7.85 µM).
